Source: the NIST ThermoML archive (doi:10.1021/je700751a)

Experiment: osmotic coefficient (dimensionless); mn = molality of the nth substance listed, in mol/kg
Conditions: Liquid, isopiestic method

O=C([O-])[C@H](O)[C@@H](O)C(=O)[O-].[K+].[K+] [dipotassium L-tartrate] + O
Conditions	osmotic coefficient
298.15 K, m1 = 0	1
298.15 K, m1 = 0.3635	0.713
298.15 K, m1 = 0.604	0.683
298.15 K, m1 = 0.7532	0.675
298.15 K, m1 = 1.285	0.677
298.15 K, m1 = 1.702	0.691
298.15 K, m1 = 1.861	0.691
298.15 K, m1 = 2.212	0.704
298.15 K, m1 = 2.379	0.711
298.15 K, m1 = 2.466	0.705
298.15 K, m1 = 2.837	0.719
298.15 K, m1 = 3.236	0.728
298.15 K, m1 = 4.168	0.759
298.15 K, m1 = 4.379	0.77
298.15 K, m1 = 4.631	0.771
298.15 K, m1 = 4.845	0.775
298.15 K, m1 = 6.72	0.805
298.15 K, m1 = 6.869	0.804
308.15 K, m1 = 0	1
308.15 K, m1 = 0.3282	0.721
308.15 K, m1 = 0.7152	0.706
308.15 K, m1 = 0.9198	0.702
308.15 K, m1 = 1.135	0.692
308.15 K, m1 = 1.327	0.694
308.15 K, m1 = 1.854	0.705
308.15 K, m1 = 2.215	0.712
308.15 K, m1 = 2.842	0.725
308.15 K, m1 = 3.585	0.751
308.15 K, m1 = 4.177	0.764
308.15 K, m1 = 5.047	0.78
308.15 K, m1 = 5.836	0.793
308.15 K, m1 = 6.435	0.806
318.15 K, m1 = 0	1
318.15 K, m1 = 0.2468	0.741
318.15 K, m1 = 0.3446	0.745
318.15 K, m1 = 0.5504	0.721
318.15 K, m1 = 0.6181	0.712
318.15 K, m1 = 0.9764	0.707
318.15 K, m1 = 1.276	0.702
318.15 K, m1 = 1.536	0.712
318.15 K, m1 = 1.995	0.723
318.15 K, m1 = 2.646	0.737
318.15 K, m1 = 2.934	0.751
318.15 K, m1 = 4.154	0.777
318.15 K, m1 = 4.813	0.791
318.15 K, m1 = 5.749	0.804
